Results from ChEMBL document CHEMBL3046070, “New N-arylamino biquinoline derivatives: microwave-assisted synthesis and their antimicrobial activities” (2013).
Converted amounts (≈) assume the structure as drawn.

What was measured:
Assay type in all cases: functional
[1] = tested on: Streptococcus pneumoniae; experiment: Antibacterial activity against Streptococcus pneumoniae MTCC 1936 assessed as growth inhibition after overnight incubation by NCCLS broth microdilution method
[2] = tested on: Candida albicans; experiment: Antifungal activity against Candida albicans MTCC 227 assessed as growth inhibition after overnight incubation by NCCLS broth microdilution method
[3] = tested on: Aspergillus fumigatus; experiment: Antifungal activity against Aspergillus fumigatus MTCC 3008 assessed as growth inhibition after overnight incubation by NCCLS broth microdilution method
[4] = tested on: Escherichia coli; experiment: Antibacterial activity against Escherichia coli MTCC 443 assessed as growth inhibition after overnight incubation by NCCLS broth microdilution method
[5] = tested on: Vibrio cholerae; experiment: Antibacterial activity against Vibrio cholerae MTCC 3906 assessed as growth inhibition after overnight incubation by NCCLS broth microdilution method
[6] = tested on: Salmonella typhi; experiment: Antibacterial activity against Salmonella enterica subsp. enterica serovar Typhi MTCC 98 assessed as growth inhibition after overnight incubation by NCCLS broth microdilution method
[7] = tested on: Bacillus subtilis; experiment: Antibacterial activity against Bacillus subtilis MTCC 441 assessed as growth inhibition after overnight incubation by NCCLS broth microdilution method
[8] = tested on: Clostridium tetani; experiment: Antibacterial activity against Clostridium tetani MTCC 449 assessed as growth inhibition after overnight incubation by NCCLS broth microdilution method

Compound	MIC [1]	MIC [2]	MIC [3]	MIC [4]	MIC [5]	MIC [6]	MIC [7]	MIC [8]
CCOC(=O)C1=C(N)N(Nc2ccc(Cl)cc2)C2=C(C(=O)CC(C)(C)C2)C1c1cc2cc(Cl)ccc2nc1Cl (stereo not given)	500 µg/mL (≈ 853 µM)	1000 µg/mL (≈ 1710 µM)	500 µg/mL (≈ 853 µM)	250 µg/mL (≈ 427 µM)	250 µg/mL (≈ 427 µM)	250 µg/mL (≈ 427 µM)	500 µg/mL (≈ 853 µM)	250 µg/mL (≈ 427 µM)
CCOC(=O)C1=C(N)N(Nc2ccccc2)C2=C(C(=O)CC(C)(C)C2)C1c1cc2cc(OC)ccc2nc1Cl (stereo not given)	200 µg/mL (≈ 366 µM)	> 1000 µg/mL	> 1000 µg/mL	250 µg/mL (≈ 457 µM)	250 µg/mL (≈ 457 µM)	250 µg/mL (≈ 457 µM)	200 µg/mL (≈ 366 µM)	250 µg/mL (≈ 457 µM)
CCOC(=O)C1=C(N)N(Nc2ccc(Br)cc2)C2=C(C(=O)CC(C)(C)C2)C1c1cc2cc(C)ccc2nc1Cl (stereo not given)	250 µg/mL (≈ 410 µM)	500 µg/mL (≈ 820 µM)	1000 µg/mL (≈ 1640 µM)	500 µg/mL (≈ 820 µM)	500 µg/mL (≈ 820 µM)	500 µg/mL (≈ 820 µM)	100 µg/mL (≈ 164 µM)	500 µg/mL (≈ 820 µM)
CCOC(=O)C1=C(N)N(Nc2ccc(Br)cc2)C2=C(C(=O)CC(C)(C)C2)C1c1cc2cc(OC)ccc2nc1Cl (stereo not given)	250 µg/mL (≈ 399 µM)	> 1000 µg/mL	500 µg/mL (≈ 799 µM)	200 µg/mL (≈ 320 µM)	200 µg/mL (≈ 320 µM)	200 µg/mL (≈ 320 µM)	250 µg/mL (≈ 399 µM)	200 µg/mL (≈ 320 µM)
CCOC(=O)C1=C(N)N(Nc2ccc(C)cc2)C2=C(C(=O)CC(C)(C)C2)C1c1cc2cc(C)ccc2nc1Cl (stereo not given)	250 µg/mL (≈ 459 µM)	1000 µg/mL (≈ 1830 µM)	> 1000 µg/mL	250 µg/mL (≈ 459 µM)	500 µg/mL (≈ 917 µM)	500 µg/mL (≈ 917 µM)	250 µg/mL (≈ 459 µM)	500 µg/mL (≈ 917 µM)
O=C(N[C@H](CO)[C@H](O)c1ccc([N+](=O)[O-])cc1)C(Cl)Cl [CHLORAMPHENICOL]	50 µg/mL (≈ 155 µM)	–	–	50 µg/mL (≈ 155 µM)	50 µg/mL (≈ 155 µM)	50 µg/mL (≈ 155 µM)	50 µg/mL (≈ 155 µM)	50 µg/mL (≈ 155 µM)
CCOC(=O)C1=C(N)N(Nc2ccc(C)cc2)C2=C(C(=O)CC(C)(C)C2)C1c1cc2ccccc2nc1Cl (stereo not given)	250 µg/mL (≈ 471 µM)	> 1000 µg/mL	> 1000 µg/mL	250 µg/mL (≈ 471 µM)	125 µg/mL (≈ 235 µM)	250 µg/mL (≈ 471 µM)	500 µg/mL (≈ 942 µM)	500 µg/mL (≈ 942 µM)
CCOC(=O)C1=C(N)N(Nc2ccc(OC)cc2)C2=C(C(=O)CC(C)(C)C2)C1c1cc2ccccc2nc1Cl (stereo not given)	200 µg/mL (≈ 366 µM)	250 µg/mL (≈ 457 µM)	500 µg/mL (≈ 914 µM)	50 µg/mL (≈ 91.4 µM)	200 µg/mL (≈ 366 µM)	200 µg/mL (≈ 366 µM)	250 µg/mL (≈ 457 µM)	100 µg/mL (≈ 183 µM)
GENTAMICIN	0.5 µg/mL	–	–	0.05 µg/mL	5 µg/mL	5 µg/mL	1 µg/mL	5 µg/mL
CCOC(=O)C1=C(N)N(Nc2ccccc2)C2=C(C(=O)CC(C)(C)C2)C1c1cc2cc(Cl)ccc2nc1Cl (stereo not given)	100 µg/mL (≈ 181 µM)	1000 µg/mL (≈ 1810 µM)	250 µg/mL (≈ 453 µM)	125 µg/mL (≈ 227 µM)	100 µg/mL (≈ 181 µM)	250 µg/mL (≈ 453 µM)	200 µg/mL (≈ 363 µM)	200 µg/mL (≈ 363 µM)
CCOC(=O)C1=C(N)N(Nc2ccc(OC)cc2)C2=C(C(=O)CC(C)(C)C2)C1c1cc2cc(C)ccc2nc1Cl (stereo not given)	125 µg/mL (≈ 223 µM)	250 µg/mL (≈ 446 µM)	500 µg/mL (≈ 891 µM)	250 µg/mL (≈ 446 µM)	250 µg/mL (≈ 446 µM)	100 µg/mL (≈ 178 µM)	250 µg/mL (≈ 446 µM)	250 µg/mL (≈ 446 µM)
CCOC(=O)C1=C(N)N(Nc2ccc(OC)cc2)C2=C(C(=O)CC(C)(C)C2)C1c1cc2cc(Cl)ccc2nc1Cl (stereo not given)	500 µg/mL (≈ 860 µM)	1000 µg/mL (≈ 1720 µM)	> 1000 µg/mL	250 µg/mL (≈ 430 µM)	250 µg/mL (≈ 430 µM)	250 µg/mL (≈ 430 µM)	500 µg/mL (≈ 860 µM)	250 µg/mL (≈ 430 µM)
CCOC(=O)C1=C(N)N(Nc2ccc(Cl)cc2)C2=C(C(=O)CC(C)(C)C2)C1c1cc2cc(C)ccc2nc1Cl (stereo not given)	500 µg/mL (≈ 884 µM)	500 µg/mL (≈ 884 µM)	> 1000 µg/mL	62.5 µg/mL (≈ 111 µM)	250 µg/mL (≈ 442 µM)	200 µg/mL (≈ 354 µM)	500 µg/mL (≈ 884 µM)	200 µg/mL (≈ 354 µM)
NYSTATIN	–	100 µg/mL	100 µg/mL	–	–	–	–	–
CCOC(=O)C1=C(N)N(Nc2ccc(Cl)cc2)C2=C(C(=O)CC(C)(C)C2)C1c1cc2cc(OC)ccc2nc1Cl (stereo not given)	250 µg/mL (≈ 430 µM)	500 µg/mL (≈ 860 µM)	> 1000 µg/mL	100 µg/mL (≈ 172 µM)	250 µg/mL (≈ 430 µM)	100 µg/mL (≈ 172 µM)	250 µg/mL (≈ 430 µM)	250 µg/mL (≈ 430 µM)
